Test results from patent US7560428B2, “Hair growth promoting oligopeptides” (Sumitomo Electric Industries, Ltd., priority 2004, dated 2009).
“Also recorded” adds a separate entry of the source. No end group written: not given here. *: point of attachment. KMUA = N-κ-maleimidoundecanoic acid-derived modifying group bound to a cysteine residue, O=C(O)CCCCCCCCCCN1C(=O)CC(*)C1=O; BMPA = N-β-maleimidopropionic acid-derived modifying group bound to a cysteine residue; Hexanoyl(6-maleimido) = O=C1C=CC(=O)N1CCCCCC(=O)*

These substances were tested on AHF (antigen recognized by the monoclonal antibody mAb27) (assay: Hair growth promoting activity in cultured mouse skin tissue: strength of the mAb27 reaction (AHF band) by Western blot). Details: test oligopeptide 20 μM, skin tissue cultured at 37° C. for 6 days, versus PBS control; FIGS. 4 and 5.
Format: cell-based, ICR baby mice
From the text: The skin tissues of the upper jaw of ICR baby mice with an age of 12 days old were recovered under a stereoscopic microscope. The skin tissues were collected from both the left and right sides of the upper jaw, and the tissues were recovered from the total 5 mice. The skin sections recovered from the 5 mice were divided into the skin sections from the left side (used as a control) and those from the right side (used as a test oligopeptide). Thereafter, 5 skin sections were placed on a single nuclepore membrane (pore size: 8 μm; diameter: 13 mm). The skin sections were observed under a stereoscopic microscope, and the outside thereof was disposed on the front. 500 μl of Dulbecco's MEM/Ham F12 medium containing 1% BSA was added to 2 wells of a 24-well dish. Thereafter, a test oligopeptide solution (solvent: PBS) was added to one well to a final concentration of 20 μM, and only a solvent (PBS) as a control was added at the same amount to the other well. As test oligopeptides, unmodified oligopeptides and modified oligopeptides produced in (1) above were used.
Each of the membranes on which the skin tissues were placed was put on the aforementioned solution filled in the well, and it was then cultured at 37° C. for 6 days. From each membrane, 5 tissue sections were recovered in 100 μl of an SDS sample buffer (0.02 g/ml SDS, 0.2 g/ml glycerol, pH 6.8). The recovered sections were then dissolved therein using an ultrasonic crusher. The control was treated in the same manner. The solution obtained by the aforementioned treatment was electrophoresed (35 mA, 1.5 hours) by SDS-PAGE (acrylamide: 4% to 20%), and it was then transferred to a PVDF membrane. Thereafter, it was incubated in a Tris buffer solution (TBST) containing 5% skimmed milk for 1 hour. Thereafter, the resultant was allowed to react with mAb27 (10 μg/ml in TBST) obtained in Example 2 for 1 hour, and it was then sufficiently washed with TBS. Thereafter, peroxidase-labeled anti-rat IgG (Amersham) was 1,000 times diluted with TBST, and the diluted solution was used as a secondary antibody. The secondary antibody was allowed to react with the above resultant product, and the obtained reaction product was then sufficiently washed. Thereafter, the strength of the reaction of mAb27 was examined using an ECL kit (Amersham).
The term “AHF” shown in FIGS. 4 and 5 represents an antigen recognized by the monoclonal antibody mAb27 (specifically, a protein consisting of 1,439 amino acid residues shown in SEQ ID NO: 11).

Row | Substance | hair growth activity (thickness of AHF band detected with mAb27)
1 | Ser-Ile-Glu-Gln-Ser-Xaa-Ala-Gln-Glu (SIEQSC(Hexanoyl(6-maleimido))AQE) [SEQ ID NO: 9] | particularly strong hair growth activity
2 | Ser-Ile-Glu-Gln-Ser-Xaa-Asp [BMPA] (SIEQSC(BMPA)D) | strong hair growth activity
3 | Ser-Ile-Glu-Gln-Ser-Xaa-Asp [EMCA] (SIEQSC(Hexanoyl(6-maleimido))D) | strong hair growth activity; also recorded: particularly strong
4 | Ser-Ile-Glu-Gln-Ser-Xaa-Asp [KMUA] (SIEQSC(KMUA)D) | strong hair growth activity
5 | Ser-Ile-Glu-Gln-Ser-Xaa-Asp-Gln-Asp-Glu (SIEQSC(Hexanoyl(6-maleimido))DQDE) [SEQ ID NO: 8] | particularly strong hair growth activity
6 | Ser-Ile-Glu-Gln-Ser-Xaa-Glu-Gln-Glu (SIEQSC(Hexanoyl(6-maleimido))EQE) [SEQ ID NO: 10] | strong hair growth activity
